Active and inactive are the calls of the source. No cut-off for these calls is given here.
Experiments:
HL-60 [1] = test: Antioxidant activity in phorbol 12-myristate 13-acetate-stimulated human HL60 cells assessed as inhibition of exogenous hydrogen peroxide-catalyzed oxidation of 2',7'-dichlorodihydrofluorescein diacetate at 50 ug/mL pretreated 30 mins before PMA challenge by flow cytometry; type: functional, cell-based
HL-60 [2] = test: Antioxidant activity in human HL60 cells assessed as inhibition of endogenous hydrogen peroxide-catalyzed oxidation of 2',7'-dichlorodihydrofluorescein diacetate at 50 ug/mL by flow cytometry; type: functional, cell-based
Colletotrichum fragariae = test: Antifungal activity against Colletotrichum fragariae at 100 nmol by 2D-TLC bioautography assay; type: functional, organism-based
Colletotrichum acutatum = test: Antifungal activity against Colletotrichum acutatum at 100 nmol by 2D-TLC bioautography assay; type: functional, organism-based
HL-60 [3] = test: Antioxidant activity in phorbol 12-myristate 13-acetate-stimulated human HL60 cells assessed as inhibition of exogenous hydrogen peroxide-catalyzed oxidation of 2',7'-dichlorodihydrofluorescein diacetate at 5 ug/mL pretreated 30 mins before PMA challenge by flow cytometry; type: functional
HL-60 [4] = test: Cytotoxicity against human HL60 cells at 5 ug/mL after 4 hrs by XTT assay; type: cell-based; settings: hl-60, 4 h
[5] = system: Radical scavenging activity; test: Antioxidant activity assessed as DPPH radical scavenging activity after 30 mins by modified 2D TLC autographic assay; type: functional
HL-60 [6] = test: Antioxidant activity in human HL60 cells assessed as inhibition of endogenous hydrogen peroxide-catalyzed oxidation of 2',7'-dichlorodihydrofluorescein diacetate at 5 ug/mL by flow cytometry; type: functional
[7] = system: Colletotrichum gloeosporioides; test: Antifungal activity against Colletotrichum gloeosporioides at 100 nmol by 2D-TLC bioautography assay; type: functional, organism-based

VITAMIN E was tested, and the inhibition (HL-60 [1]) was 32.4% and the inhibition (HL-60 [2]) was “inactive”.

`CC(C)=C/C=C/C(C)=C/CC/C(C)=C/CC/C(C)=C/CO` was tested, and the Activity (Colletotrichum fragariae) was “Active”, the Activity (Colletotrichum acutatum) was “Active” and the inhibition at 5 µg/mL (HL-60 [3]) was 28%. The Activity (HL-60 [4]) was “Non-toxic”, the Activity [5] was “Active” and the inhibition at 5 µg/mL (HL-60 [6]) was 8%. The Activity [7] was “Active”.

Reference: ChEMBL document CHEMBL1150853, “A new dehydrogeranylgeraniol antioxidant from Saururus cernuus that inhibits intracellular reactive oxygen species (ROS)-catalyzed oxidation within HL-60 cells” (J Nat Prod, 2001)
